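The concentration for 50% growth inhibition is given as GI50. TGI denotes the concentration required for complete inhibition of growth.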
Key:
Experiment in all cases: NCI tumour cell line growth inhibition, 384-well format
A498 renal = system: A498 renal
A549 NSCLC = system: A549 NSCLC
ACHN renal = system: ACHN renal
BT-549 breast = system: BT-549 breast
CAKI-1 renal = system: CAKI-1 renal
COLO 205 colon = system: COLO 205 colon
DU-145 prostate = system: DU-145 prostate
EKVX NSCLC = system: EKVX NSCLC
HCC-2998 colon = system: HCC-2998 colon
HCT-116 colon = system: HCT-116 colon
HCT-15 colon = system: HCT-15 colon
HL-60(TB) leukemia = system: HL-60(TB) leukemia
HOP-62 NSCLC = system: HOP-62 NSCLC
HOP-92 NSCLC = system: HOP-92 NSCLC
HS 578T breast = system: HS 578T breast
HT29 colon = system: HT29 colon
IGROV1 ovarian = system: IGROV1 ovarian
KM12 colon = system: KM12 colon
LOX IMVI melanoma = system: LOX IMVI melanoma
M14 melanoma = system: M14 melanoma
MALME-3M melanoma = system: MALME-3M melanoma
MCF7 breast = system: MCF7 breast
MDA-MB-231 breast = system: MDA-MB-231 breast
MDA-MB-435 melanoma = system: MDA-MB-435 melanoma
MDA-MB-468 breast = system: MDA-MB-468 breast
MOLT-4 leukemia = system: MOLT-4 leukemia
NCI-H226 lung = system: NCI-H226 lung

SMILES: O=C(Oc1ccc([N+](=O)[O-])cc1)N1CCN(Cc2cccc(Oc3ccccc3)c2)CC1
- GI50 (A498 renal): 42.1 µM
- TGI (A498 renal): > 100 µM
- GI50 (A549 NSCLC): > 100 µM
- TGI (A549 NSCLC): > 100 µM
- GI50 (ACHN renal): > 100 µM
- TGI (ACHN renal): > 100 µM
- GI50 (BT-549 breast): 67.1 µM
- TGI (BT-549 breast): > 100 µM
- GI50 (CAKI-1 renal): > 100 µM
- TGI (CAKI-1 renal): > 100 µM
- GI50 (COLO 205 colon): > 100 µM
- TGI (COLO 205 colon): > 100 µM
- GI50 (DU-145 prostate): > 100 µM
- TGI (DU-145 prostate): > 100 µM
- GI50 (EKVX NSCLC): 44.1 µM
- TGI (EKVX NSCLC): > 100 µM
- GI50 (HCC-2998 colon): 47.3 µM
- TGI (HCC-2998 colon): > 100 µM
- GI50 (HCT-116 colon): 42.7 µM
- TGI (HCT-116 colon): > 100 µM
- GI50 (HCT-15 colon): 49.2 µM
- TGI (HCT-15 colon): > 100 µM
- GI50 (HL-60(TB) leukemia): 13.2 µM
- TGI (HL-60(TB) leukemia): 34.2 µM
- GI50 (HOP-62 NSCLC): > 100 µM
- TGI (HOP-62 NSCLC): > 100 µM
- GI50 (HOP-92 NSCLC): > 100 µM
- TGI (HOP-92 NSCLC): > 100 µM
- GI50 (HS 578T breast): 92.3 µM
- TGI (HS 578T breast): > 100 µM
- GI50 (HT29 colon): 51.6 µM
- TGI (HT29 colon): > 100 µM
- GI50 (IGROV1 ovarian): > 100 µM
- TGI (IGROV1 ovarian): > 100 µM
- GI50 (KM12 colon): 99.3 µM
- TGI (KM12 colon): > 100 µM
- GI50 (LOX IMVI melanoma): 53.9 µM
- TGI (LOX IMVI melanoma): > 100 µM
- GI50 (M14 melanoma): > 100 µM
- TGI (M14 melanoma): > 100 µM
- GI50 (MALME-3M melanoma): > 100 µM
- TGI (MALME-3M melanoma): > 100 µM
- GI50 (MCF7 breast): 31 µM
- TGI (MCF7 breast): > 100 µM
- GI50 (MDA-MB-231 breast): > 100 µM
- TGI (MDA-MB-231 breast): > 100 µM
- GI50 (MDA-MB-435 melanoma): > 100 µM
- TGI (MDA-MB-435 melanoma): > 100 µM
- GI50 (MDA-MB-468 breast): 20.6 µM
- TGI (MDA-MB-468 breast): > 100 µM
- GI50 (MOLT-4 leukemia): 41.4 µM
- TGI (MOLT-4 leukemia): > 100 µM
- GI50 (NCI-H226 lung): > 100 µM
- TGI (NCI-H226 lung): > 100 µM

From PubChem BioAssay (NCI)
